Laboratory results from publication PMC10882719 (Frontiers in Neuroscience, 2024).
Read-outs that look alike come from different tables or passages of the source.

Key:
Format in all cases: cell-based
168 GPCRs [1] = target: T1, 168 GPCRs (Homo sapiens, UniProt O95136)
T1 construct: host or cells: PathHunter cell lines
Experimental: (§1) Studies were performed at Eurofins DiscoverX Corporation (Fremont, CA) using the GPCRmax assay according to the manufacturer’s protocols. […] Activity greater than 30% typically indicates agonist activity and inhibition greater than 50% indicates antagonist activity. This assay uses enzyme fragment complementation with […] as the functional reporter. When a GPCR is activated, […] is recruited and the reporter is detectable. GPCRmax offers a high-throughput screen of 168 GPCRs for agonist or antagonist activity. Briefly, PathHunter cell lines were propagated, seeded into 384-well microplates and incubated at 37°C. […] Microplates were read following signal generation with a PerkinElmer Envision™ instrument for chemiluminescent signal detection. Compound activity was analyzed using CBIS data analysis suite (ChemInnovation, CA) to determine raw values (RLU). For agonist mode assay, percentage activity was calculated using the following formula: % Activity =100% × (mean RLU of test sample - mean RLU of vehicle control) / (mean MAX control ligand - mean RLU of vehicle control). For antagonist mode assay, percentage inhibition was calculated using the following formula: % Inhibition =100% × (1 - (mean RLU of test sample - mean RLU of vehicle control) / (mean RLU of EC80 control - mean RLU of vehicle control)).

168 GPCRs [2] = target: T2, 168 GPCRs (Homo sapiens, UniProt P21728)
T2 construct: host or cells: PathHunter cell lines
T2 sequence (P21728 whole entry): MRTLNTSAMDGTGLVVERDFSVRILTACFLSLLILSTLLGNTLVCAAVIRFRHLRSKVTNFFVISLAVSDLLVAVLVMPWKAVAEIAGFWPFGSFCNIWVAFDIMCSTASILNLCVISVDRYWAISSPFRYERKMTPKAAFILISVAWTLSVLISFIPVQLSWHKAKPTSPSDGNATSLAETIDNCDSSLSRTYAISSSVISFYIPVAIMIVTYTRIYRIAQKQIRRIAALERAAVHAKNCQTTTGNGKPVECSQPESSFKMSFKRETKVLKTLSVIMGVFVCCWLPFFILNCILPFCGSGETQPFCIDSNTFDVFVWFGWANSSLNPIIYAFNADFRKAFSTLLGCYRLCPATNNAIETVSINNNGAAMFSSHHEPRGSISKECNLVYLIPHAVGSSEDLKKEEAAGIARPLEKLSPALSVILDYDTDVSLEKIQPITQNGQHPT
Experimental: as §1

168 GPCRs [3] = target: T3, 168 GPCRs (Homo sapiens, UniProt P49146); conditions: NPY2R
T3 construct: host or cells: PathHunter cell lines
T3 sequence (P49146 1-381): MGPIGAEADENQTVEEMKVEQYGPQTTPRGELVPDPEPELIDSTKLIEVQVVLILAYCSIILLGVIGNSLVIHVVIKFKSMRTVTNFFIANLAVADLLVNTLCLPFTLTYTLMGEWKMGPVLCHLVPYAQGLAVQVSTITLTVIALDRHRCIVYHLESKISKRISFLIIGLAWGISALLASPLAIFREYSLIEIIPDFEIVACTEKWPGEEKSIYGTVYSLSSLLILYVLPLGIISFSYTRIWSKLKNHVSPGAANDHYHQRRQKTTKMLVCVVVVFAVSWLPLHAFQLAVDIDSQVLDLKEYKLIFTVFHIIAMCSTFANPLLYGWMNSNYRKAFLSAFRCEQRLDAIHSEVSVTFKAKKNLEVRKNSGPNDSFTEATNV
Experimental: as §1

168 GPCRs [4] = target: T4, 168 GPCRs (Homo sapiens, UniProt Q03431); conditions: PTHR1
T4 construct: host or cells: PathHunter cell lines
T4 sequence (Q03431 27-593): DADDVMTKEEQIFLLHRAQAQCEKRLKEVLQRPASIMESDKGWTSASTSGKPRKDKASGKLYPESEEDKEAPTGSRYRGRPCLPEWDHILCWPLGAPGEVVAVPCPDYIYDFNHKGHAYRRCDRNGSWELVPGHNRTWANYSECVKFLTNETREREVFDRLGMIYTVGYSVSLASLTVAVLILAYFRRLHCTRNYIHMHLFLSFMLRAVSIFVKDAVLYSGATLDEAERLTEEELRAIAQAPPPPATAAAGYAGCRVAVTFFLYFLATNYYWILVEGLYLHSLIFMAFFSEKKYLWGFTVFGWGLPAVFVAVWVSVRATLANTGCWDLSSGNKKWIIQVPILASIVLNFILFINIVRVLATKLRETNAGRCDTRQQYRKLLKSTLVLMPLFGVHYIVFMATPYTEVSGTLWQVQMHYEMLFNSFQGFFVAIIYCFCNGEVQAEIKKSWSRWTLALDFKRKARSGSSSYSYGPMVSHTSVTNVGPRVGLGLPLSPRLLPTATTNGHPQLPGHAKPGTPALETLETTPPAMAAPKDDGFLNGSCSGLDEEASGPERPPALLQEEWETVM
Experimental: as §1

168 GPCRs [5] = target: T5, 168 GPCRs (Homo sapiens, UniProt Q99788)
T5 construct: host or cells: PathHunter cell lines
T5 sequence (Q99788 1-373): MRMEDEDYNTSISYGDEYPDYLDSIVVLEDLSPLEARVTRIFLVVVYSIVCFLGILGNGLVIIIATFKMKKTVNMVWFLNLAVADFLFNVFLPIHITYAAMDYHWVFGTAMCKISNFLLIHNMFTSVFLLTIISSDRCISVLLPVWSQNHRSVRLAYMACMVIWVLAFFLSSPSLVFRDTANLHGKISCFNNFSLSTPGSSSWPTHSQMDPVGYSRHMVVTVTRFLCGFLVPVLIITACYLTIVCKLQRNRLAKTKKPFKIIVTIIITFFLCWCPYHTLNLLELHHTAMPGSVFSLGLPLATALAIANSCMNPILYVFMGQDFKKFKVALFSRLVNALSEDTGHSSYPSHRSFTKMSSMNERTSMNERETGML
Experimental: as §1

168 GPCRs [6] = target: T6, 168 GPCRs (Homo sapiens, UniProt Q9UBY5)
T6 construct: host or cells: PathHunter cell lines
T6 sequence (Q9UBY5 1-353): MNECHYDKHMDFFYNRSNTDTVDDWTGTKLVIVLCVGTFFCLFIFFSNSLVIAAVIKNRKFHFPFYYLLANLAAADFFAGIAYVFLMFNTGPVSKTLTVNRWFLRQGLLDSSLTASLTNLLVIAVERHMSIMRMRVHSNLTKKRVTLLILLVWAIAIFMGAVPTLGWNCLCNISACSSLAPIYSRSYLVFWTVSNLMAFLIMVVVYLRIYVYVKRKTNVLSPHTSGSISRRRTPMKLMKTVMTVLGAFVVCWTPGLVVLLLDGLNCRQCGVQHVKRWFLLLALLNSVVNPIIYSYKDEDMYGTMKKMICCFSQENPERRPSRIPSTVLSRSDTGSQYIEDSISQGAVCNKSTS
Experimental: as §1

T1 sequence (O95136 whole entry): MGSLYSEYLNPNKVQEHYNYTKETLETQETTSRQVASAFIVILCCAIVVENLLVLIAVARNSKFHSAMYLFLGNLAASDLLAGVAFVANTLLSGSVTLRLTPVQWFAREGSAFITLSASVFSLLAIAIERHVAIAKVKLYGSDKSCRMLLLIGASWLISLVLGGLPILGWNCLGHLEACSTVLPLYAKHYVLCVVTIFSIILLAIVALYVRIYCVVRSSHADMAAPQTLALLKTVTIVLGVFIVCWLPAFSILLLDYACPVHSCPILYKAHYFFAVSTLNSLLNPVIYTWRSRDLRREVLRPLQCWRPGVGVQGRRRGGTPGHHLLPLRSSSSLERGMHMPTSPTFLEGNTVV

CNC(C)C(=O)c1ccc2c(c1)OCO2 (stereo not drawn) [methylone]
% Agonist Activity (168 GPCRs [1]; EDG5, 1 uM): -4.7% | % Antagonist Activity (168 GPCRs [1]; EDG5, 1 uM): -3.4% | % Agonist Activity (168 GPCRs [1]; EDG5, 10 uM): -3.7% | % Antagonist Activity (168 GPCRs [1]; EDG5, 10 uM): -6.3% | % Agonist Activity (168 GPCRs [2]; DRD1, 1 uM): -1.6% | % Antagonist Activity (168 GPCRs [2]; DRD1, 1 uM): 6% | % Agonist Activity (168 GPCRs [2]; DRD1, 10 uM): -1.6% | % Antagonist Activity (168 GPCRs [2]; DRD1, 10 uM): 7.8% | % Agonist Activity (168 GPCRs [3]; Conc 1 uM): -0.1% | % Antagonist Activity (168 GPCRs [3]; Conc 1 uM): 2.3% | % Agonist Activity (168 GPCRs [3]; Conc 10 uM): 0.2% | % Antagonist Activity (168 GPCRs [3]; Conc 10 uM): 2% | % Agonist Activity (168 GPCRs [4]; Conc 1 uM): 0% | % Antagonist Activity (168 GPCRs [4]; Conc 1 uM): 2.2% | % Agonist Activity (168 GPCRs [4]; Conc 10 uM): 0.1% | % Antagonist Activity (168 GPCRs [4]; Conc 10 uM): -8.3% | % Agonist Activity (168 GPCRs [5]; CMKLR1, 1 uM): -0.2% | % Antagonist Activity (168 GPCRs [5]; CMKLR1, 1 uM): -0.2% | % Agonist Activity (168 GPCRs [5]; CMKLR1, 10 uM): -0.3% | % Antagonist Activity (168 GPCRs [5]; CMKLR1, 10 uM): -5.6% | % Agonist Activity (168 GPCRs [6]; EDG7, 1 uM): 3% | % Antagonist Activity (168 GPCRs [6]; EDG7, 1 uM): 19.5% | % Agonist Activity (168 GPCRs [6]; EDG7, 10 uM): 1.1% | % Antagonist Activity (168 GPCRs [6]; EDG7, 10 uM): 17.9%

CNC(C)Cc1ccc2c(c1)OCO2 (stereo not drawn) [MDMA, 3,4-Methylenedioxy methamphetamine, reference compound]
% Agonist Activity (168 GPCRs [1]; EDG5, 1 uM): -1.1% | % Antagonist Activity (168 GPCRs [1]; EDG5, 1 uM): -0.5% | % Agonist Activity (168 GPCRs [1]; EDG5, 10 uM): -1.5% | % Antagonist Activity (168 GPCRs [1]; EDG5, 10 uM): 0.6% | % Agonist Activity (168 GPCRs [2]; DRD1, 1 uM): -1% | % Antagonist Activity (168 GPCRs [2]; DRD1, 1 uM): -0.5% | % Agonist Activity (168 GPCRs [2]; DRD1, 10 uM): -0.8% | % Antagonist Activity (168 GPCRs [2]; DRD1, 10 uM): 6% | % Agonist Activity (168 GPCRs [3]; Conc 1 uM): -0.1% | % Antagonist Activity (168 GPCRs [3]; Conc 1 uM): 12% | % Agonist Activity (168 GPCRs [3]; Conc 10 uM): 0.2% | % Antagonist Activity (168 GPCRs [3]; Conc 10 uM): 4.8% | % Agonist Activity (168 GPCRs [4]; Conc 1 uM): 0% | % Antagonist Activity (168 GPCRs [4]; Conc 1 uM): -2.1% | % Agonist Activity (168 GPCRs [4]; Conc 10 uM): 0.1% | % Antagonist Activity (168 GPCRs [4]; Conc 10 uM): 7.7% | % Agonist Activity (168 GPCRs [5]; CMKLR1, 1 uM): -0.3% | % Antagonist Activity (168 GPCRs [5]; CMKLR1, 1 uM): 0.4% | % Agonist Activity (168 GPCRs [5]; CMKLR1, 10 uM): -0.4% | % Antagonist Activity (168 GPCRs [5]; CMKLR1, 10 uM): 1.1% | % Agonist Activity (168 GPCRs [6]; EDG7, 1 uM): -2.8% | % Antagonist Activity (168 GPCRs [6]; EDG7, 1 uM): -7% | % Agonist Activity (168 GPCRs [6]; EDG7, 10 uM): -2.4% | % Antagonist Activity (168 GPCRs [6]; EDG7, 10 uM): 0.8%
